We go through 22 compounds from patent publication US20210277020A1, “HETEROCYCLIC COMPOUNDS AS MONOACYLGLYCEROL LIPASE INHIBITORS” (Hoffmann-La Roche Inc., priority 2018, published 2021).

Usually IC50 stands for the concentration needed to halve the response being measured. Read a low IC50 as inhibition by little substance.

For this assay, the target named is T1, MAGL (Homo sapiens, UniProt Q99685).
T1 sequence (Q99685 1-303): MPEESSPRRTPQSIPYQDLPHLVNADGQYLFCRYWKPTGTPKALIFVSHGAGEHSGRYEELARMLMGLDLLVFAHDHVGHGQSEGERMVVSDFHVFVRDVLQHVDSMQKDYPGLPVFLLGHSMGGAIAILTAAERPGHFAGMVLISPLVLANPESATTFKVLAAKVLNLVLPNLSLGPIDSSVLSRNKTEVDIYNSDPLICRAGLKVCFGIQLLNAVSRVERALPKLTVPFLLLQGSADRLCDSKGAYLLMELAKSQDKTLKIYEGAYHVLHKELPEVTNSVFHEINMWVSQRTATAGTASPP
Kind of assay: 2-AG assay: MAGL inhibition followed by hydrolysis of 2-arachidonoylglycerol to arachidonic acid, mass spectrometry. It counts as biochemical. The following applies: measured in 2-AG assay (footnote [a]); substrate 2-arachidonoylglycerol 8 μM, 30 min at RT. The text has this: Alternatively, compounds were profiled for MAGL inhibitory activity by determining the enzymatic activity by following the hydrolysis of the natural substrate, 2-arachidonoylglycerol, resulting in arachidonic acid, which can be followed by mass spectrometry. This assay is hereinafter abbreviated “2-AG assay”.
Detection by mass spectrometry in the present 2-AG assay has the advantage over known optical assays that the natural enzyme substrate, 2-arachidonoylglycerol, can be used instead of structurally unrelated compounds needed for optical readouts (such as 4-NPA). It thereby delivers more relevant data for activity determination, reduces false positives and generally adds to data quality. In addition, this assay reduces the analysis time from about 10 minutes per sample with standard methods to under 10 seconds per sample. This allows for using the present 2-AG assay in a method for high throughput screening of compounds for their MAGL inhibitory activity.
The 2-AG assay was carried out in 384 well assay plates (PP, Greiner Cat #784201) in a total volume of 20 μL. Compound dilutions were made in 100% DMSO (VWR Chemicals 23500.297) in a polypropylene plate in 3-fold dilution steps to give a final concentration range in the assay from 12.5 μM to […]. 0.25 μL compound dilutions (100% DMSO) were added to 9 μL MAGL in assay buffer (50 mM TRIS (GIBCO, 15567-027), 1 mM EDTA (Fluka, 03690-100 mL), 0.01% (v/v) Tween. After shaking, the plate was incubated for 15 min at RT. To start the reaction, 10 μL 2-arachidonoylglycerol in assay buffer was added. The final concentrations in the assay was […] and 8 μM 2-arachidonoylglyerol. After shaking and 30 min incubation at RT, the reaction was quenched by the addition of 40 μL of acetonitrile containing 4 μM of d8-arachidonic acid. The amount of arachidonic acid was traced by an online SPE system (Agilent Rapidfire) coupled to a triple quadrupole mass spectrometer (Agilent 6460). A C18 SPE cartridge (G9205A) was used in an acetonitrile/water liquid setup. The mass spectrometer was operated in negative electrospray mode following the mass transitions 303.1→259.1 for arachidonic acid and 311.1→267.0 for d8-arachidonic acid. The activity of the compounds was calculated based on the ratio of intensities [arachidonic acid/d8-arachidonic acid].
In a preferred embodiment, the method for determining the MAGL inhibitory activity of a test compound according to the invention, comprises: • (i) providing a solution of a test compound; • (ii) adding the solution of step (i) to a solution of MAGL; • (iii) shaking the mixture obtained from step (ii); • (iv) incubating the mixture obtained from step (iii); • (v) adding a solution of 2-arachidonoylglycerol; • (vi) incubating the mixture obtained from step (v); • (vii) adding a solution of d8-arachidonic acid; and • (viii) determining the ratio of intensities arachidonic acid/d8-arachidonic acid using a mass spectrometer.
For the compound `O=C1CO[C@H]2CCN(C(=O)N3CCC(C#Cc4cccc(Cl)c4)CC3)C[C@H]2N1` [Example 129, (+)-(4aR,8aS)-6-[4-[2-(3-Chlorophenyl)ethynyl]piperidine-1-carbonyl]-4,4a,5,7,8,8a-hexahydropyrido[4,3-b][1,4]oxazin-3-one], the IC50 was 103 nM. In the case of `O=C1CO[C@H]2CCN(C(=O)N3CC(C#Cc4ccc(Cl)cc4F)C3)C[C@H]2N1` [Example 174, (4aR,8aS)-6-[3-[2-(4-Chloro-2-fluorophenyl)ethynyl]azetidine-1-carbonyl]-4,4a,5,7,8,8a-hexahydropyrido[4,3-b][1,4]oxazin-3-one] it was 12 nM.

`O=C1CO[C@H]2CCN(C(=O)N3CC(C#Cc4c(F)cc(C(F)(F)F)cc4Cl)C3)C[C@H]2N1` [Example 189, (4aR,8aS)-6-[3-[2-[2-Chloro-6-fluoro-4-(trifluoromethyl)phenyl]ethynyl]azetidine-1-carbonyl]-4,4a,5,7,8,8a-hexahydropyrido[4,3-b][1,4]oxazin-3-one] registered a half-maximal inhibitory concentration (IC50) of 1 nM.

For the compound `CS(=O)(=O)c1ccc(C#CC2CN(C(=O)N3CC[C@@H]4OCC(=O)N[C@@H]4C3)C2)cc1` [Example 186, (4aR,8aS)-6-[3-[2-(4-Methylsulfonylphenyl)ethynyl]azetidine-1-carbonyl]-4,4a,5,7,8,8a-hexahydropyrido[4,3-b][1,4]oxazin-3-one], half-maximal inhibition (IC50) required 753 nM. In the case of `O=C1CO[C@H]2CCN(C(=O)N3CCC(C#Cc4ncccc4Cl)CC3)C[C@H]2N1` [Example 127, (+)-(4aR,8aS)-6-[4-[2-(3-Chloropyridin-2-yl)ethynyl]piperidine-1-carbonyl]-4,4a,5,7,8,8a-hexahydropyrido[4,3-b][1,4]oxazin-3-one] it was 308 nM; in that of `O=C1CO[C@H]2CCN(C(=O)N3CC(C#Cc4c(Cl)cccc4Cl)C3)C[C@H]2N1` [Example 157, (+)-(4aR,8aS)-6-(3-((2,6-Dichlorophenyl)ethynyl)azetidine-1-carbonyl)hexahydro-2H-pyrido[4,3-b][1,4]oxazin-3(4H)-one], 5 nM; in that of `O=C1CO[C@H]2CCN(C(=O)N3CC(C#Cc4csc(Cl)c4)C3)C[C@H]2N1` [Example 188, (4aR,8aS)-6-[3-[2-(5-Chlorothiophen-3-yl)ethynyl]azetidine-1-carbonyl]-4,4a,5,7,8,8a-hexahydropyrido[4,3-b][1,4]oxazin-3-one], 13 nM.

Compound `O=C1CO[C@H]2CCN(C(=O)N3CC(C#Cc4ccccc4Br)C3)C[C@H]2N1` [Example 171, (4aR,8aS)-6-[3-[2-(2-Bromophenyl)ethynyl]azetidine-1-carbonyl]-4,4a,5,7,8,8a-hexahydropyrido[4,3-b][1,4]oxazin-3-one] registered an IC50 of 7 nM. On to `O=C1CO[C@H]2CCN(C(=O)N3CC(S(=O)(=O)c4ccc(C(F)(F)F)cc4Cl)C3)C[C@H]2N1` [Example 144, (4aR,8aS)-6-[3-[2-Chloro-4-(trifluoromethyl)phenyl]sulfonylazetidine-1-carbonyl]-4,4a,5,7,8,8a-hexahydropyrido[4,3-b][1,4]oxazin-3-one], for which half-maximal inhibition (IC50) required 2640 nM.

Compound `Cc1ccccc1C#CC1CN(C(=O)N2CC[C@@H]3OCC(=O)N[C@@H]3C2)C1` [Example 173, (4aR,8aS)-6-(3-(o-Tolylethynyl)azetidine-1-carbonyl)hexahydro-2H-pyrido[4,3-b][1,4]oxazin-3(4H)-one] gave a half-maximal inhibitory concentration (IC50) of 10 nM. The result for `O=C1CO[C@H]2CCN(C(=O)N3CC(C#Cc4ccc(Cl)cc4C(F)(F)F)C3)C[C@H]2N1` [Example 164, (4aR,8aS)-6-[3-[2-[4-Chloro-2-(trifluoromethyl)phenyl]ethynyl]azetidine-1-carbonyl]-4,4a,5,7,8,8a-hexahydropyrido[4,3-b][1,4]oxazin-3-one] reads 3 nM; that for `Cc1c(F)cccc1C#CC1CN(C(=O)N2CC[C@@H]3OCC(=O)N[C@@H]3C2)C1` [Example 168, (4aR,8aS)-6-[3-[2-(3-Fluoro-2-methylphenyl)ethynyl]azetidine-1-carbonyl]-4,4a,5,7,8,8a-hexahydropyrido[4,3-b][1,4]oxazin-3-one], 6 nM. `O=C1CO[C@H]2CCN(C(=O)N3CC(C#CC4=CCCC4)C3)C[C@H]2N1` [Example 199, (4aR,8aS)-6-[3-[2-(Cyclopenten-1-yl)ethynyl]azetidine-1-carbonyl]-4,4a,5,7,8,8a-hexahydropyrido[4,3-b][1,4]oxazin-3-one] displayed a concentration for half-maximal inhibition (IC50) of 107 nM. The result for `O=C1CO[C@H]2CCN(C(=O)N3CC(CNC(c4cccc(C(F)(F)F)c4)C(F)(F)F)C3)C[C@H]2N1` (stereo partly drawn) [Example 68, (4aR,8aS)-6-(3-(((2,2,2-Trifluoro-1-(3-(trifluoromethyl)phenyl)ethyl)amino)methyl)azetidine-1-carbonyl)hexahydro-2H-pyrido[4,3-b][1,4]oxazin-3(4H)-one] reads 18 nM; that for `CC1(C#Cc2ccc(F)cc2Cl)CCN(C(=O)N2CC[C@@H]3OCC(=O)N[C@@H]3C2)CC1` [Example 197, (4aR,8aS)-6-(4-((2-Chloro-4-fluorophenyl)ethynyl)-4-methylpiperidine-1-carbonyl)hexahydro-2H-pyrido[4,3-b][1,4]oxazin-3(4H)-one], 230 nM. Turning to `O=C1CO[C@H]2CCN(C(=O)N3CC([S+]([O-])c4ccc(C(F)(F)F)cc4Cl)C3)C[C@H]2N1` (single isomer, unassigned) [Example 146], the IC50 stood at 2720 nM. In the case of `COc1ccccc1C#CC1CN(C(=O)N2CC[C@@H]3OCC(=O)N[C@@H]3C2)C1` [Example 163, (4aR,8aS)-6-(3-((2-Methoxyphenyl)ethynyl)azetidine-1-carbonyl)hexahydro-2H-pyrido[4,3-b][1,4]oxazin-3(4H)-one] it was 49 nM; in that of `O=C1CO[C@H]2CCN(C(=O)N3CC(C#Cc4ccc(OC(F)(F)F)cc4)C3)C[C@H]2N1` [Example 166, (4aR,8aS)-6-[3-[2-[4-(Trifluoromethoxy)phenyl]ethynyl]azetidine-1-carbonyl]-4,4a,5,7,8,8a-hexahydropyrido[4,3-b][1,4]oxazin-3-one], 9 nM; in that of `O=C1CO[C@H]2CCN(C(=O)N3CC(C#Cc4c(F)cccc4F)C3)C[C@H]2N1` [Example 159, (4aR,8aS)-6-(3-((2,6-Difluorophenyl)ethynyl)azetidine-1-carbonyl)hexahydro-2H-pyrido[4,3-b][1,4]oxazin-3(4H)-one], 34 nM.

For `CC1(C#Cc2ccc(Cl)cc2Cl)CCN(C(=O)N2CC[C@@H]3OCC(=O)N[C@@H]3C2)CC1` [Example 196, (4aR,8aS)-6-(4-((2,4-Dichlorophenyl)ethynyl)-4-methylpiperidine-1-carbonyl)hexahydro-2H-pyrido[4,3-b][1,4]oxazin-3(4H)-one], the midpoint of inhibition, the IC50, lay at 92 nM. In the case of `O=C1CO[C@H]2CCN(C(=O)N3CC(NC(=O)c4ccc(F)cc4Cl)C3)C[C@H]2N1` [Example 78, 2-chloro-4-fluoro-N-(1-((4aR,8aS)-3-oxooctahydro-2H-pyrido[4,3-b][1,4]oxazine-6-carbonyl)azetidin-3-yl)benzamide] it was 4600 nM; in that of `O=C1CO[C@H]2CCN(C(=O)N3CC(CSc4ccc(C(F)(F)F)cc4Cl)C3)C[C@H]2N1` [Example 148, (4aR,8aS)-6-[3-[[2-Chloro-4-(trifluoromethyl)phenyl]sulfanylmethyl]azetidine-1-carbonyl]-4,4a,5,7,8,8a-hexahydropyrido[4,3-b][1,4]oxazin-3-one], 2 nM.
